Tests used:
SETVI = assay: greenhouse post-emergence herbicidal test; assay type: in vivo, Setaria viridis; conditions: post-emergence method, scale from 0 to 100
Source text: (§1) The seeds of the test plants were sown separately for each species. For the post-emergence treatment, the test plants were first grown to a height of 3 to 15 cm, depending on the plant habit, and only then treated with the active ingredients which had been suspended or emulsified in water. For this purpose, the test plants were either sown directly and grown in the same containers, or they were first grown separately as seedlings and transplanted into the test containers a few days prior to treatment. Depending on the species, the plants were kept at 10-25° C. or 20-35° C., respectively. The test period extended over 2 to 4 weeks. During this time, the plants were tended, and their response to the individual treatments was evaluated. Evaluation was carried out using a scale from 0 to 100. 100 means no emergence of the plants, or complete destruction of at least the aerial moieties, and 0 means no damage, or normal course of growth. […] The plants used in the greenhouse experiments were of the following species: [table]

APESV = assay: greenhouse pre-emergence herbicidal test; assay type: in vivo, Apera spica-venti; conditions: pre-emergence method, scale from 0 to 100
In short: (§2)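 Compounds suspended or emulsified in water, sprayed pre-emergence directly after sowing; containers covered until rooting, kept at 10-25 °C or 20-35 °C by species. Damage scored 0-100 (100 = no emergence or complete destruction of aerial parts) after 2 to 4 weeks.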

POLCO = assay: greenhouse post-emergence herbicidal test; assay type: in vivo, Polygonum convolvulus; conditions: post-emergence method, application rate 500 g/ha, scale from 0 to 100
In short: (§3)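 Read-out is a visual 0–100 injury rating, 100 meaning complete destruction of at least aerial parts and 0 meaning normal growth. It was taken over 2–4 weeks after plants 3–15 cm tall were treated with compound suspended or emulsified in water.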

ALOMY [1] = assay: greenhouse pre-emergence herbicidal test; assay type: in vivo, Alopercurus myosuroides; conditions: pre-emergence method, application rate 500 g/ha, scale from 0 to 100
Source text: The seeds of the test plants were sown separately for each species. For the pre-emergence treatment, the active ingredients, which had been suspended or emulsified in water, were applied directly after sowing by means of finely distributing nozzles. The containers were irrigated gently to promote germination and growth and subsequently covered with transparent plastic hoods until the plants had rooted. This cover caused uniform germination of the test plants, unless this had been impaired by the active ingredients. Depending on the species, the plants were kept at 10-25° C. or 20-35° C., respectively. The test period extended over 2 to 4 weeks. During this time, the plants were tended, and their response to the individual treatments was evaluated. Evaluation was carried out using a scale from 0 to 100. 100 means no emergence of the plants, or complete destruction of at least the aerial moieties, and 0 means no damage, or normal course of growth. […] The plants used in the greenhouse experiments were of the following species: [table]

ALOMY [2] = assay: greenhouse post-emergence herbicidal test; assay type: in vivo, Alopercurus myosuroides; conditions: post-emergence method, application rate 500 g/ha, scale from 0 to 100
In short: as §3

AMARE = assay: greenhouse post-emergence herbicidal test; assay type: in vivo, Amaranthus retroflexus; conditions: post-emergence method, application rate 500 g/ha, scale from 0 to 100
In short: as §3

ECHCG [3] = assay: greenhouse pre-emergence herbicidal test; assay type: in vivo, Echinocloa crus-galli; conditions: pre-emergence method, scale from 0 to 100
In short: as §2

ECHCG [4] = assay: greenhouse post-emergence herbicidal test; assay type: in vivo, Echinocloa crus-galli; conditions: post-emergence method, scale from 0 to 100
In short: as §3

AVEFA = assay: greenhouse post-emergence herbicidal test; assay type: in vivo, Avena fatua; conditions: post-emergence method, application rate 500 g/ha, scale from 0 to 100
In short: as §3

ABUTH = assay: greenhouse post-emergence herbicidal test; assay type: in vivo, Abutilon theophrasti; conditions: post-emergence method, application rate 500 g/ha, scale from 0 to 100
Source text: as §1

Structure (SMILES) | herbicidal activity against APESV (APESV; application rate 500 g/ha) | herbicidal activity against POLCO (POLCO) | herbicidal activity against ALOMY (ALOMY [1]) | herbicidal activity against ALOMY (ALOMY [2]) | herbicidal activity against ECHCG (ECHCG [3]; application rate 500 g/ha) | herbicidal activity against ECHCG (ECHCG [4]; application rate 500 g/ha) | further results
COc1ccc(-c2cnc(SC)nc2C(=O)O)c(OC)c1 [example 109] |  |  |  |  |  |  | herbicidal activity against SETVI (SETVI; application rate 2000 g/ha): good (A good herbicidal activity is given at values of at least 70)
O=C(O)c1nc(C2CC2)ncc1-c1c(Cl)cc(F)cc1Cl [example 147] | very good (a very good herbicidal activity is given at values of at least 85) | very good (a very good herbicidal activity is given at values of at least 85) | very good (a very good herbicidal activity is given at values of at least 85) | very good (a very good herbicidal activity is given at values of at least 85) |  |  | 
O=C(O)c1nc(C2CC2)ncc1-c1ccccc1Br [example 152] | very good (a very good herbicidal activity is given at values of at least 85) |  | good (A good herbicidal activity is given at values of at least 70) |  | very good (a very good herbicidal activity is given at values of at least 85) |  | herbicidal activity against AMARE (AMARE): good (A good herbicidal activity is given at values of at least 70)
Cc1ccc(F)cc1-c1cnc(C2CC2)nc1C(=O)O [example 163] |  |  |  |  |  |  | herbicidal activity against APESV (APESV; application rate 1000 g/ha): very good (a very good herbicidal activity is given at values of at least 85); herbicidal activity against ECHCG (ECHCG [4]; application rate 1000 g/ha): very good (a very good herbicidal activity is given at values of at least 85); herbicidal activity against SETVI (SETVI; application rate 1000 g/ha): very good (a very good herbicidal activity is given at values of at least 85); herbicidal activity against ECHCG (ECHCG [3]; application rate 1000 g/ha): very good (a very good herbicidal activity is given at values of at least 85)
Cc1ccc(Cl)cc1-c1cnc(C2CC2)nc1C(=O)O [example 164] | very good (a very good herbicidal activity is given at values of at least 85) | very good (a very good herbicidal activity is given at values of at least 85) | very good (a very good herbicidal activity is given at values of at least 85) |  | very good (a very good herbicidal activity is given at values of at least 85) | very good (a very good herbicidal activity is given at values of at least 85) | 
O=C(O)c1nc(C2CC2)ncc1-c1ccccc1C(F)(F)F [example 176] | very good (a very good herbicidal activity is given at values of at least 85) | very good (a very good herbicidal activity is given at values of at least 85) | very good (a very good herbicidal activity is given at values of at least 85) |  |  |  | herbicidal activity against AVEFA (AVEFA): very good (a very good herbicidal activity is given at values of at least 85)
COC(=O)c1nc(C2CC2)ncc1-c1ccccc1F [example 190] | very good (a very good herbicidal activity is given at values of at least 85) | good (A good herbicidal activity is given at values of at least 70) | very good (a very good herbicidal activity is given at values of at least 85) |  | very good (a very good herbicidal activity is given at values of at least 85) |  | 
COC(=O)c1nc(C2CC2)ncc1-c1ccccc1Cl [example 201] | very good (a very good herbicidal activity is given at values of at least 85) | very good (a very good herbicidal activity is given at values of at least 85) | very good (a very good herbicidal activity is given at values of at least 85) | very good (a very good herbicidal activity is given at values of at least 85) | very good (a very good herbicidal activity is given at values of at least 85) |  | 
COC(=O)c1nc(C2CC2)ncc1-c1cc(OC)ccc1Cl [example 206] | very good (a very good herbicidal activity is given at values of at least 85) |  |  |  | very good (a very good herbicidal activity is given at values of at least 85) | good (A good herbicidal activity is given at values of at least 70) | herbicidal activity against SETVI (SETVI; application rate 500 g/ha): good (A good herbicidal activity is given at values of at least 70)
COC(=O)c1nc(C2CC2)ncc1-c1ccccc1Br [example 213] | very good (a very good herbicidal activity is given at values of at least 85) |  | very good (a very good herbicidal activity is given at values of at least 85) | good (A good herbicidal activity is given at values of at least 70) | very good (a very good herbicidal activity is given at values of at least 85) | good (A good herbicidal activity is given at values of at least 70) | 
COC(=O)c1nc(C2CC2)ncc1-c1cc(F)ccc1C [example 226] | good (A good herbicidal activity is given at values of at least 70) | very good (a very good herbicidal activity is given at values of at least 85) | very good (a very good herbicidal activity is given at values of at least 85) | very good (a very good herbicidal activity is given at values of at least 85) | very good (a very good herbicidal activity is given at values of at least 85) |  | 
COC(=O)c1nc(C2CC2)ncc1-c1cc(Cl)ccc1C [example 227] | very good (a very good herbicidal activity is given at values of at least 85) |  | very good (a very good herbicidal activity is given at values of at least 85) | very good (a very good herbicidal activity is given at values of at least 85) | very good (a very good herbicidal activity is given at values of at least 85) | very good (a very good herbicidal activity is given at values of at least 85) | 
COC(=O)c1nc(C2CC2)ncc1-c1cc(C)c(F)cc1C [example 230] | very good (a very good herbicidal activity is given at values of at least 85) |  | good (A good herbicidal activity is given at values of at least 70) | good (A good herbicidal activity is given at values of at least 70) | very good (a very good herbicidal activity is given at values of at least 85) | very good (a very good herbicidal activity is given at values of at least 85) | 
CCOC(=O)c1nc(C2CC2)ncc1-c1ccccc1Cl [example 251] | very good (a very good herbicidal activity is given at values of at least 85) |  | very good (a very good herbicidal activity is given at values of at least 85) |  |  |  | herbicidal activity against AMARE (AMARE): very good (a very good herbicidal activity is given at values of at least 85); herbicidal activity against ABUTH (ABUTH): very good (a very good herbicidal activity is given at values of at least 85)
COC(=O)C(C)(C)SC(=O)c1nc(C2CC2)ncc1-c1ccccc1Cl [example 283] | very good (a very good herbicidal activity is given at values of at least 85) | very good (a very good herbicidal activity is given at values of at least 85) | very good (a very good herbicidal activity is given at values of at least 85) |  |  |  | herbicidal activity against AVEFA (AVEFA): very good (a very good herbicidal activity is given at values of at least 85)
CNC(=O)c1nc(C2CC2)ncc1-c1ccccc1Cl [example 289] |  |  |  |  |  |  | herbicidal activity against APESV (APESV; application rate 1000 g/ha): very good (a very good herbicidal activity is given at values of at least 85); herbicidal activity against SETVI (SETVI; application rate 1000 g/ha): good (A good herbicidal activity is given at values of at least 70); herbicidal activity against ECHCG (ECHCG [3]; application rate 1000 g/ha): good (A good herbicidal activity is given at values of at least 70)
